Test results reported in US9580396B2, “C6-spiro iminothiadiazine dioxides as BACE inhibitors, compositions, and their use” (Merck Sharp & Dohme Corp., priority 2012, dated 2017).

How the values were obtained:
[1] = biological target: soluble human BACE1 catalytic domain (Homo sapiens (Human), UniProt P56817); test: BACE1 HTRF FRET Assay; assay type: biochemical; settings: Ki calculated from IC50 using the Cheng-Prusoff equation; QSY7-APPswe-Eu substrate, pH 5.0
From the text: Na^+-Acetate pH 5.0; 1% Brij-35; Glycerol; Dimethyl Sulfoxide (DMSO); Recombinant human soluble BACE1 catalytic domain (>95% pure); APP Swedish mutant peptide substrate (QSY7-APP^swe-Eu): QSY7-EISEVNLDAEFC-Europium-amide.
A homogeneous time-resolved FRET assay can be used to determine IC50 values for inhibitors of the soluble human BACE1 catalytic domain. This assay monitors the increase of 620 nm fluorescence that resulted from BACE1 cleavage of an APPswedish APP^swe mutant peptide FRET substrate (QSY7-EISEVNLDAEFC-Europium-amide). This substrate contains an N-terminal QSY7 moiety that serves as a quencher of the C-terminal Europium fluorophore (620 nm Em). In the absence of enzyme activity, 620 nm fluorescence is low in the assay and increased linearly over 3 hours in the presence of uninhibited BACE1 enzyme Inhibition of BACE1 cleavage of the QSY7-APP^swe-Eu substrate by inhibitors is manifested as a suppression of 620 nm fluorescence.
Varying concentrations of inhibitors at 3× the final desired concentration in a volume of 10 ul are preincubated with purified human BACE1 catalytic domain (3 nM in 10 μl) for 30 minutes at 30° C. in reaction buffer containing 20 mM Na-Acetate pH 5.0, 10% glycerol, 0.1% Brij-35 and 7.5% DSMO. Reactions are initiated by addition of 10 μl of 600 nM QSY7-APP^swe-Eu substrate (200 nM final) to give a final reaction volume of 30 μl in a 384 well Nunc HTRF plate. The reactions are incubated at 30° C. for 1.5 hours. The 620 nm fluorescence is then read on a Rubystar HTRF plate reader (BMG Labtechnologies) using a 50 millisecond delay followed by a 400 millisecond acquisition time window Inhibitor IC50 values are derived from non-linear regression analysis of concentration response curves. Ki values are then calculated from IC50 values using the Cheng-Prusoff equation using a previously determined […] of 8 μM for the QSY7-APP^swe-Eu substrate at BACE1.

[2] = biological target: purified human autoBACE-2 (Homo sapiens (Human), UniProt Q9Y5Z0); test: BACE-2 Assay (BACE-HTRF assay); assay type: biochemical; settings: Ki calculated from IC50 using the Cheng-Prusoff equation; QSY7-EISEVNLDAEFC-Eu-amide substrate, pH 5.0; read-out: BACE2 Ki
Method: Inhibitor IC50s at purified human autoBACE-2 are determined in a time-resolved endpoint proteolysis assay that measures hydrolysis of the QSY7-[…]-Eu-amide FRET peptide substrate (BACE-HTRF assay). […] DMSO is present at 5% final concentration in the assay. Following laser excitation of sample wells at 320 nm, the fluorescence signal at 620 nm is collected for 400 ms following a 50 μs delay on a RUBYstar HTRF plate reader (BMG Labtechnologies). Raw RFU data is normalized to maximum (1.0 nM BACE/DMSO) and minimum (no enzyme/DMSO) RFU values. […] The Ki values are calculated from the IC50 using the Cheng-Prusoff equation.

soluble human BACE1 catalytic domain, sequence (P56817 75-416): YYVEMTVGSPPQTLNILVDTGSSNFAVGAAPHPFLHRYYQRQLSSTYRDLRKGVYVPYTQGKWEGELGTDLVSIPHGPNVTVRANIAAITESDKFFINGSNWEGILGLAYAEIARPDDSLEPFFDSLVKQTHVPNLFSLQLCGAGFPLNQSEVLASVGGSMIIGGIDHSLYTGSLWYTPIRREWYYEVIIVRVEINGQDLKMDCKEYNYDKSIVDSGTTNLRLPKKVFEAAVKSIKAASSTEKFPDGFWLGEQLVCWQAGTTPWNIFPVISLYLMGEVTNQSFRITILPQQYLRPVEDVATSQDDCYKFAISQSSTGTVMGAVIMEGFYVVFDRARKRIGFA

Structure (SMILES) | Ki [1] | Ki [2]
CN1C(=N)N[C@@]2(CCOc3ccc(NC(=O)c4ccc(Cl)cn4)cc32)CS1(=O)=O [Example 1a] | 70 nM | 17 nM
COc1ccc(C(=O)Nc2ccc3c(c2)[C@]2(CCO3)CS(=O)(=O)N(C)C(=N)N2)nc1 [Example 1b] | 233 nM | 130 nM
COCC(=O)Nc1ccc2c(c1)[C@]1(CCO2)CS(=O)(=O)N(C)C(=N)N1 [Example 1c] | 2010 nM | 341 nM
CN1C(=N)N[C@@]2(CCOc3ccc(NC(=O)C(F)F)cc32)CS1(=O)=O [Example 1d] | 2280 nM | 728 nM
CN1C(=N)N[C@@]2(CCOc3ccc(NC(=O)c4ccc(OCF)cn4)cc32)CS1(=O)=O [Example 2a] | 91 nM | 59 nM
Cc1nc(C(=O)Nc2ccc3c(c2)[C@]2(CCO3)CS(=O)(=O)N(C)C(=N)N2)co1 [Example 2b] | 142 nM | 20 nM
CN1C(=N)N[C@@]2(CCOc3ccc(NC(=O)c4ccc(C#N)cn4)cc32)CS1(=O)=O [Example 2c] | 26 nM | 51 nM
CN1C(=N)N[C@@]2(CCOc3ccc(NC(=O)c4ncc(C(F)(F)F)cn4)cc32)CS1(=O)=O [Example 2d] | 579 nM | 780 nM
CN1C(=N)N[C@@]2(CCOc3ccc(NC(=O)c4ncc(Cl)cc4F)cc32)CS1(=O)=O [Example 2e] | 49 nM | 9 nM
C#CCOc1cnc(C(=O)Nc2ccc3c(c2)[C@]2(CCO3)CS(=O)(=O)N(C)C(=N)N2)cn1 [Example 2f] | 13 nM | 138 nM
CN1C(=N)N[C@@]2(CCOc3ccc(NC(=O)c4cnc(OCC(F)(F)F)cn4)cc32)CS1(=O)=O [Example 2g] | 70 nM | 699 nM
C#CCOc1ccc(C(=O)Nc2ccc3c(c2)[C@]2(CCO3)CS(=O)(=O)N(C)C(=N)N2)nc1 [Example 2h] | 33 nM | 313 nM
COc1cnc(C(=O)Nc2ccc3c(c2)[C@]2(CCO3)CS(=O)(=O)N(C)C(=N)N2)c(C)c1 [Example 2i] | 168 nM | 29 nM
COc1cnc(C(=O)Nc2ccc3c(c2)[C@]2(CCO3)CS(=O)(=O)N(C)C(=N)N2)c(C)n1 [Example 2j] | 294 nM | 160 nM
Cc1cc(C#N)cnc1C(=O)Nc1ccc2c(c1)[C@]1(CCO2)CS(=O)(=O)N(C)C(=N)N1 [Example 2k] | 15 nM | 26 nM
COc1cnc(C(=O)Nc2ccc3c(c2)[C@]2(CCO3)CS(=O)(=O)N(C)C(=N)N2)cn1 [Example 2l] | 212 nM | 254 nM
CN1C(=N)N[C@@]2(CCOc3ccc(NC(=O)c4cnc(C(F)(F)F)cn4)cc32)CS1(=O)=O [Example 2m] | 303 nM | 1150 nM
CN1C(=N)N[C@@]2(CCOc3ccc(NC(=O)c4cc5ccccn5n4)cc32)CS1(=O)=O [Example 2n] | 1490 nM | 337 nM
CN1C(=N)N[C@@]2(CCOc3ccc(NC(=O)c4ccc(C(F)(F)F)cn4)cc32)CS1(=O)=O [Example 2o] | 77 nM | 283 nM
CN1C(=N)N[C@@]2(CCOc3ccc(NC(=O)c4ccn(C(F)F)n4)cc32)CS1(=O)=O [Example 2p] | 20 nM | 3 nM
Cc1nc(C(=O)Nc2ccc3c(c2)[C@]2(CCO3)CS(=O)(=O)N(C)C(=N)N2)no1 [Example 2q] | 367 nM | 31 nM
CN1C(=N)N[C@@]2(CCOc3ccc(NC(=O)c4cn5cc(C#N)ccc5n4)cc32)CS1(=O)=O [Example 2r] | 604 nM | 6910 nM
CN1C(=N)N[C@@]2(CCOc3ccc(NC(=O)c4cnsn4)cc32)CS1(=O)=O [Example 2s] | 240 nM | 46 nM
CN1C(=N)N[C@@]2(CCOc3ccc(NC(=O)c4ccc(F)cn4)cc32)CS1(=O)=O [Example 2t] | 205 nM | 31 nM

Structure (SMILES) | Ki [1] | Ki [2]
CN1C(=N)N[C@@]2(CCOc3ccc(NC(=O)c4ccc(OC(F)F)cn4)cc32)CS1(=O)=O [Example 2u] | 44 nM | 166 nM
CN1C(=N)N[C@@]2(CCOc3ccc(NC(=O)c4ccc(OC(F)(F)F)cn4)cc32)CS1(=O)=O [Example 2v] | 52 nM | 261 nM
CN1C(=N)N[C@@]2(CCOc3ccc(NC(=O)c4cnc(OCCF)cn4)cc32)CS1(=O)=O [Example 2w] | 229 nM | 572 nM
CN1C(=N)N[C@@]2(COCc3ccc(NC(=O)c4ccc(Cl)cn4)cc32)CS1(=O)=O [Example 3a] | 272 nM | 58 nM
COc1ccc(C(=O)Nc2ccc3c(c2)[C@]2(COC3)CS(=O)(=O)N(C)C(=N)N2)nc1 [Example 3b] | 1160 nM | 354 nM
CN1C(=N)N[C@@]2(CCCc3ccc(NC(=O)c4ccc(Cl)cn4)cc32)CS1(=O)=O [Example 4a] | 58 nM | 15 nM
COc1ccc(C(=O)Nc2ccc3c(c2)[C@]2(CCC3)CS(=O)(=O)N(C)C(=N)N2)nc1 [Example 4b] | 228 nM | 67 nM
COCC(=O)Nc1ccc2c(c1)[C@]1(CCC2)CS(=O)(=O)N(C)C(=N)N1 [Example 4c] | 2120 nM | 260 nM
CN1C(=N)N[C@@]2(CCCc3ccc(NC(=O)C(F)F)cc32)CS1(=O)=O [Example 4d] | 2580 nM | 515 nM
CN1C(=N)N[C@@]2(CCCc3ccc(NC(=O)c4cn5cc(C#N)ccc5n4)cc32)CS1(=O)=O [Example 5a] | 636 nM | 1130 nM
CN1C(=N)N[C@@]2(CCCc3ccc(NC(=O)c4ccc(F)cn4)cc32)CS1(=O)=O [Example 5b] | 192 nM | 28 nM
CN1C(=N)N[C@@]2(CCCc3ccc(NC(=O)c4ccc(OC(F)F)cn4)cc32)CS1(=O)=O [Example 5c] | 59 nM | 126 nM
CN1C(=N)N[C@@]2(CCCc3ccc(NC(=O)c4ccc(OC(F)(F)F)cn4)cc32)CS1(=O)=O [Example 5d] | 55 nM | 219 nM
CN1C(=N)N[C@@]2(CCCc3ccc(NC(=O)c4cnc(OCCF)cn4)cc32)CS1(=O)=O [Example 5e] | 257 nM | 487 nM
Cc1nc(C(=O)Nc2ccc3c(c2)[C@]2(CCC3)CS(=O)(=O)N(C)C(=N)N2)no1 [Example 5f] | 314 nM | 16 nM
CN1C(=N)N[C@@]2(CCCc3ccc(NC(=O)c4ccc(OCF)cn4)cc32)CS1(=O)=O [Example 5g] | 77 nM | 33 nM
Cc1nc(C(=O)Nc2ccc3c(c2)[C@]2(CCC3)CS(=O)(=O)N(C)C(=N)N2)co1 [Example 5h] | 108 nM | 11 nM
CN1C(=N)N[C@@]2(CCCc3ccc(NC(=O)c4ccc(C#N)cn4)cc32)CS1(=O)=O [Example 5i] | 19 nM | 44 nM
CN1C(=N)N[C@@]2(CCCc3ccc(NC(=O)c4ncc(C(F)(F)F)cn4)cc32)CS1(=O)=O [Example 5j] | 468 nM | 423 nM
CN1C(=N)N[C@@]2(CCCc3ccc(NC(=O)c4ncc(Cl)cc4F)cc32)CS1(=O)=O [Example 5k] | 54 nM | 8 nM
C#CCOc1cnc(C(=O)Nc2ccc3c(c2)[C@]2(CCC3)CS(=O)(=O)N(C)C(=N)N2)cn1 [Example 5l] | 11 nM | 77 nM
CN1C(=N)N[C@@]2(CCCc3ccc(NC(=O)c4cnc(OCC(F)(F)F)cn4)cc32)CS1(=O)=O [Example 5m] | 72 nM | 508 nM
C#CCOc1ccc(C(=O)Nc2ccc3c(c2)[C@]2(CCC3)CS(=O)(=O)N(C)C(=N)N2)nc1 [Example 5n] | 42 nM | 221 nM
